# Reference: patent US11927590B2, “Methods and systems for screening therapeutic compositions for treating age-related macular degeneration” (ARIZONA BOARD OF REGENTS ON BEHALF OF THE UNIVERSITY OF …, priority 2020, dated 2024)
# Tested on: retinal pigment epithelial (RPE) cells
# Experiment: RPE exosome release
# Format: cell-based
# Conditions: RPE cells incubated in media (DMEM) plus L-DOPA versus media alone (FIG. 3A)
# Excerpt: Exosomes released from retinal pigment epithelial (RPE) cells can be isolated. […] Cells and cell debris are removed and exosomes are then purified. Note the present invention is not limited to this particular method of exosome isolation. In certain embodiments of the present invention, exosomes are not isolated for the measurement of levels of exosomes released from RPE cells. […] FIG. 3B illustrates GPR143 exosome release and its inhibition by L-DOPA. FIG. 4A and FIG. 4B show RPE exosome release studies in response to 30 minute treatments with 1 μM dopamine (FIG. 4A), 1 nM Dopamine 2 receptor (D2R) agonist (bromocriptine, FIG. 4B), and 1 nM Dopamine 2 receptor ([…]) antagonist (raclopride, FIG. 4B).
compound,measurement,value
N[C@@H](Cc1ccc(O)c(O)c1)C(=O)O [L-DOPA],exosome release from RPE cells,significant reduction in exosome release
